Laboratory results: patent US20260199320A1, “COMBINATION THERAPIES FOR TREATING CANCER” (INSTITUTE FOR CANCER RESEARCH D/B/A THE RESEARCH INSTITUTE …, priority 2022, published 2026)
Read-outs that look alike come from different tables or passages of the source.

Tested on: HEP 3B Hepatocellular Carcinoma
Assay: Cell viability by CellTiter Blue assay, CalcuSyn 2.0 combination analysis, HEP 3B
Settings: for IC50: read-out: Dm; for Dose Len: Len alone; for Dose Lon: Lon alone; for Dose Sor: Sor alone
Method: Cell viability was analyzed by CellTiter Blue assay. ED, effective dose. The data analysis was performed using CalcuSyn 2.0 software. […] CI 0.85-0.9: slight synergism; CI 0.7-0.85: moderate synergism; CI 0.3-0.7: synergism; CI 0.1-0.3: strong synergism; CI<0.1: very strong synergism.

Structure (SMILES): COc1cc2nccc(Oc3ccc(NC(=O)NC4CC4)c(Cl)c3)c2cc1C(N)=O [Len, Lenvatinib]
- Effect (Dose 1.0 uM): 0.3487
- Effect (Dose 2.0 uM): 0.5908
- Effect (Dose 4.0 uM): 0.6835
- Effect (Dose 6.0 uM): 0.706
- Effect (Dose 8.0 uM): 0.7316
- Effect (Dose 1.0E−4 uM): 1.0E−4
- IC50 (Homo sapiens, Hep3B): 1.98 µM
- Dose Len (Fa 0.05): 0.08241 µM
- Dose Len (Fa 0.1): 0.1847 µM
- Dose Len (Fa 0.15): 0.3044 µM
- Dose Len (Fa 0.2): 0.4435 µM
- Dose Len (Fa 0.25): 0.605 µM
- Dose Len (Fa 0.3): 0.7937 µM
- Dose Len (Fa 0.35): 1.016 µM
- Dose Len (Fa 0.4): 1.279 µM
- Dose Len (Fa 0.45): 1.596 µM
- Dose Len (Fa 0.48908 (experimental point)): 1.891 µM
- Dose Len (Fa 0.5): 1.982 µM
- Dose Len (Fa 0.55): 2.462 µM
- Dose Len (Fa 0.6): 3.071 µM
- Dose Len (Fa 0.65): 3.868 µM
- Dose Len (Fa 0.66115 (experimental point)): 4.08 µM
- Dose Len (Fa 0.7): 4.949 µM
- Dose Len (Fa 0.75): 6.493 µM
- Dose Len (Fa 0.76439 (experimental point)): 7.066 µM
- Dose Len (Fa 0.79346 (experimental point)): 8.481 µM
- Dose Len (Fa 0.8): 8.859 µM
- Dose Len (Fa 0.83864 (experimental point)): 11.7543 µM
- Dose Len (Fa 0.85): 12.9048 µM
- Dose Len (Fa 0.9): 21.2693 µM
- Dose Len (Fa 0.95): 47.6701 µM
- Dose Len (Fa 0.97): 84.6505 µM
- Dose Len (Fa 1.0E−4 (experimental point)): 9.48e-05 µM

Structure (SMILES): NC(=O)N1CCC(CC(=O)N2CCC([C@H]3c4ncc(Br)cc4CCc4cc(Cl)cc(Br)c43)CC2)CC1 [Lon, Lonafarnib]
- Effect (Dose 100.0 nM): 0.2171
- Effect (Dose 200.0 nM): 0.2792
- Effect (Dose 400.0 nM): 0.3124
- Effect (Dose 600.0 nM): 0.3247
- Effect (Dose 800.0 nM): 0.3747
- Effect (Dose 1.0E−4 nM): 1.0E−4
- IC50 (Homo sapiens, Hep3B): 1.56 µM
- Dose Lon (Fa 0.05): 7.632 nM
- Dose Lon (Fa 0.1): 29.4334 nM
- Dose Lon (Fa 0.15): 67.8864 nM
- Dose Lon (Fa 0.2): 127.362 nM
- Dose Lon (Fa 0.25): 214.159 nM
- Dose Lon (Fa 0.3): 337.210 nM
- Dose Lon (Fa 0.34468 (experimental point of LonSor)): 488.163 nM
- Dose Lon (Fa 0.35): 509.303 nM
- Dose Lon (Fa 0.37774 (experimental point of LonSor)): 632.458 nM
- Dose Lon (Fa 0.4): 749.086 nM
- Dose Lon (Fa 0.45): 1084.42 nM
- Dose Lon (Fa 0.48908 (experimental point of LonLen)): 1439.98 nM
- Dose Lon (Fa 0.5): 1558.23 nM
- Dose Lon (Fa 0.55): 2239.05 nM
- Dose Lon (Fa 0.6): 3241.39 nM
- Dose Lon (Fa 0.60837 (experimental point of LonSor)): 3452.95 nM
- Dose Lon (Fa 0.65): 4767.46 nM
- Dose Lon (Fa 0.66115 (experimental point of LonLen)): 5212.31 nM
- Dose Lon (Fa 0.7): 7200.51 nM
- Dose Lon (Fa 0.75): 11337.8 nM
- Dose Lon (Fa 0.76439 (experimental point of LonLen)): 13060.1 nM
- Dose Lon (Fa 0.79346 (experimental point of LonLen)): 17723.1 nM
- Dose Lon (Fa 0.8): 19064.4 nM
- Dose Lon (Fa 0.83864 (experimental point of LonLen)): 30595.1 nM
- Dose Lon (Fa 0.84428 (experimental point of LonSor)): 33023.4 nM
- Dose Lon (Fa 0.85): 35766.8 nM
- Dose Lon (Fa 0.9): 82494.1 nM
- Dose Lon (Fa 0.93635 (experimental point of LonSor)): 200408. nM
- Dose Lon (Fa 0.95): 318153. nM
- Dose Lon (Fa 0.97): 831265. nM
- Dose Lon (Fa 1.0E−4 (experimental point)): 9.27e-05 nM

Structure (SMILES): CNC(=O)c1cc(Oc2ccc(NC(=O)Nc3ccc(Cl)c(C(F)(F)F)c3)cc2)ccn1 [Sor, Sorafenib]
- Effect (Dose 1.0 uM): 0.05824
- Effect (Dose 2.0 uM): 0.1667
- Effect (Dose 4.0 uM): 0.4078
- Effect (Dose 6.0 uM): 0.6762
- Effect (Dose 8.0 uM): 0.8681
- Effect (Dose 1.0E−4 uM): 1.0E−4
- Dose Sor (Fa 0.05): 0.1769 µM
- Dose Sor (Fa 0.1): 0.4116 µM
- Dose Sor (Fa 0.15): 0.6944 µM
- Dose Sor (Fa 0.2): 1.029 µM
- Dose Sor (Fa 0.25): 1.425 µM
- Dose Sor (Fa 0.3): 1.893 µM
- Dose Sor (Fa 0.34468 (experimental point)): 2.386 µM
- Dose Sor (Fa 0.35): 2.451 µM
- Dose Sor (Fa 0.37774 (experimental point)): 2.806 µM
- Dose Sor (Fa 0.4): 3.12 µM
- Dose Sor (Fa 0.45): 3.933 µM
- Dose Sor (Fa 0.5): 4.934 µM
- Dose Sor (Fa 0.55): 6.19 µM
- Dose Sor (Fa 0.6): 7.803 µM
- Dose Sor (Fa 0.60837 (experimental point)): 8.118 µM
- Dose Sor (Fa 0.65): 9.934 µM
- Dose Sor (Fa 0.7): 12.8580 µM
- Dose Sor (Fa 0.75): 17.0827 µM
- Dose Sor (Fa 0.8): 23.6479 µM
- Dose Sor (Fa 0.84428 (experimental point)): 33.3507 µM
- Dose Sor (Fa 0.85): 35.0585 µM
- Dose Sor (Fa 0.9): 59.1449 µM
- Dose Sor (Fa 0.93635 (experimental point)): 103.075 µM
- Dose Sor (Fa 0.95): 137.645 µM
- Dose Sor (Fa 0.97): 251.060 µM
- Dose Sor (Fa 1.0E−4 (experimental point)): 0.000148 µM
- IC50 (CalcuSyn median-effect fit, single drug dosed in uM): 4.93 µM
